Test results reported in US10874743B2, “IRAK degraders and uses thereof” (Kymera Therapeutics, Inc., priority 2017, dated 2020).

Molecular target: T1, IRAK4 (Homo sapiens, UniProt Q9NWZ3)
T1 sequence (Q9NWZ3 1-460): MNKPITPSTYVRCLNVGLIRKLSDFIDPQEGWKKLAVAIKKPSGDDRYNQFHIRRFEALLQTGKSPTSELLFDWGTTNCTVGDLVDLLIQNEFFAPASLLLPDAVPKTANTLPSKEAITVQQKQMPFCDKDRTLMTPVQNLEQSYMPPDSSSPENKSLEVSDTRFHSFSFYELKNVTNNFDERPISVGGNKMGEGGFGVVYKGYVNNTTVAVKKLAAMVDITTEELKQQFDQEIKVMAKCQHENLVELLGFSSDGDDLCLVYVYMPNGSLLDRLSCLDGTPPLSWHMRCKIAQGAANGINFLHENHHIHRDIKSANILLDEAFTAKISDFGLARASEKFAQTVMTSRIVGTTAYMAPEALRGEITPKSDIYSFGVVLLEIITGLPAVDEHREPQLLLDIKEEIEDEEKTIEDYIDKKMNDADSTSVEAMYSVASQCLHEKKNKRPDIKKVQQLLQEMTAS
Assay: OCI-LY-10 degradation assay (western blot, % IRAK4 degraded after 4 hours)
Format: cell-based
Parameters: endogenous in cells; host or cells: OCI-LY10
Details: OCI-LY10 cells, 4 hours; for OCI-LY10 % IRAK4 Degradation (0.01 uM): 0.01 uM compound; for OCI-LY10 % IRAK4 Degradation (0.1 uM): 0.1 uM compound; for OCI-LY10 % IRAK4 Degradation (1 uM): 1 uM compound
Procedure, shortened: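 OCI-LY10 cells (RPMI-1640, 20% FBS, 55 μM 2-ME) treated with compound at 0.003-10 μM final for 4 h at 37° C, then lysed in RIPA buffer. IRAK4 level read by fluorescent western blot (20-25 μg protein) and binned as % degraded: A >50%, B >20-50%, C <20%.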

| SMILES | OCI-LY10 % IRAK4 Degradation (0.01 uM) | OCI-LY10 % IRAK4 Degradation (0.1 uM) | OCI-LY10 % IRAK4 Degradation (1 uM) |
| --- | --- | --- | --- |
| O=C1CCC(N2C(=O)c3cccc(NCCOCCN4CCN(CCOCCNCc5ccc(-n6cc(NC(=O)c7coc(-c8ccnc(NCC9CC9)c8)n7)c(C(F)F)n6)cc5)CC4)c3C2=O)C(=O)N1 (stereo not drawn) [I-348] | C (<20% degradation) | C (<20% degradation) | A (>50% degradation) |
| Cn1cc(-c2nc(C(=O)Nc3cn(-c4ccc(CNCCOCCOCCNc5ccc6c(c5)C(=O)N(C5CCC(=O)NC5=O)C6=O)cc4)nc3C(F)F)co2)cn1 (stereo not drawn) [I-353] | C (<20% degradation) | C (<20% degradation) | C (<20% degradation) |
| CN(CCCc1cccc2c1C(=O)N(C1CCC(=O)NC1=O)C2=O)Cc1ccc(-n2cc(NC(=O)c3coc(-c4ccnc(NCC5CC5)c4)n3)c(C(F)F)n2)cc1 (stereo not drawn) [I-355] | B (>20-50% degradation) | B (>20-50% degradation) | C (<20% degradation) |
| CN(CCCc1cccc2c1C(=O)N(C1CCC(=O)NC1=O)C2=O)Cc1ccc(-n2cc(NC(=O)c3coc(-c4ccncc4)n3)c(C(N)=O)n2)cc1 (stereo not drawn) [I-356] | C (<20% degradation) | C (<20% degradation) | C (<20% degradation) |
| O=C1CCC(N2C(=O)c3cccc(CCCNCc4ccc(-n5cc(NC(=O)c6coc(-c7ccnc(NCC8CC8)c7)n6)c(C(F)F)n5)cc4)c3C2=O)C(=O)N1 (stereo not drawn) [I-357] | C (<20% degradation) | C (<20% degradation) | C (<20% degradation) |
| NC(=O)c1nn(-c2ccc(CNCCCc3cccc4c3C(=O)N(C3CCC(=O)NC3=O)C4=O)cc2)cc1NC(=O)c1coc(-c2ccncc2)n1 (stereo not drawn) [I-358] | C (<20% degradation) | C (<20% degradation) | C (<20% degradation) |
| O=C1CCC(N2C(=O)c3cccc(CNCc4ccc(-n5cc(NC(=O)c6coc(-c7ccncc7)n6)c(C(F)F)n5)cc4)c3C2=O)C(=O)N1 (stereo not drawn) [I-359] | C (<20% degradation) | C (<20% degradation) | C (<20% degradation) |
| O=C1CCC(N2C(=O)c3cccc(CCCNCc4ccc(-n5cc(NC(=O)c6coc(-c7ccnc(NCC(F)(F)F)c7)n6)c(C(F)F)n5)cc4)c3C2=O)C(=O)N1 (stereo not drawn) [I-361] | C (<20% degradation) | C (<20% degradation) | C (<20% degradation) |
| CN(CCOCCCc1cccc2c1C(=O)N(C1CCC(=O)NC1=O)C2=O)Cc1ccc(-n2cc(NC(=O)c3coc(-c4ccnc(NCC5CC5)c4)n3)c(C(F)F)n2)cc1 (stereo not drawn) [I-362] | C (<20% degradation) | B (>20-50% degradation) | A (>50% degradation) |
| CN(CCOCCCc1cccc2c1C(=O)N(C1CCC(=O)NC1=O)C2=O)Cc1ccc(-n2cc(NC(=O)c3coc(-c4ccncc4)n3)c(C(F)F)n2)cc1 (stereo not drawn) [I-363] | C (<20% degradation) | C (<20% degradation) | C (<20% degradation) |
| CN(CCNCCCc1cccc2c1C(=O)N(C1CCC(=O)NC1=O)C2=O)C(=O)c1ccc(-n2cc(NC(=O)c3coc(-c4ccncc4)n3)c(C(F)F)n2)cc1 (stereo not drawn) [I-364] | C (<20% degradation) | C (<20% degradation) | C (<20% degradation) |
| CN(CCCc1cccc2c1C(=O)N(C1CCC(=O)NC1=O)C2=O)Cc1ccc(-n2cc(NC(=O)c3coc(-c4ccncc4)n3)c(C(F)F)n2)cc1 (stereo not drawn) [I-365] | C (<20% degradation) | C (<20% degradation) | C (<20% degradation) |
| CN(CCCc1ccc2c(c1)C(=O)N(C1CCC(=O)NC1=O)C2=O)Cc1ccc(-n2cc(NC(=O)c3coc(-c4ccnc(NCC5CC5)c4)n3)c(C(F)F)n2)cc1 (stereo not drawn) [I-369] | B (>20-50% degradation) | B (>20-50% degradation) | B (>20-50% degradation) |
| CN(CCCc1ccc2c(c1)C(=O)N(C1CCC(=O)NC1=O)C2=O)Cc1ccc(-n2cc(NC(=O)c3coc(-c4ccncc4)n3)c(C(N)=O)n2)cc1 (stereo not drawn) [I-370] | C (<20% degradation) | B (>20-50% degradation) | B (>20-50% degradation) |
| NC(=O)c1nn(-c2ccc(CNCCCc3ccc4c(c3)C(=O)N(C3CCC(=O)NC3=O)C4=O)cc2)cc1NC(=O)c1coc(-c2ccncc2)n1 (stereo not drawn) [I-372] | C (<20% degradation) | C (<20% degradation) | C (<20% degradation) |
| CN(CCCc1ccc2c(c1)C(=O)N(C1CCC(=O)NC1=O)C2=O)Cc1ccc(-n2cc(NC(=O)c3coc(-c4ccnc(NCC(F)(F)F)c4)n3)c(C(F)F)n2)cc1 (stereo not drawn) [I-374] | C (<20% degradation) | B (>20-50% degradation) | B (>20-50% degradation) |
| O=C1CCC(N2C(=O)c3ccc(CCCNCc4ccc(-n5cc(NC(=O)c6coc(-c7ccnc(NCC(F)(F)F)c7)n6)c(C(F)F)n5)cc4)cc3C2=O)C(=O)N1 (stereo not drawn) [I-375] | B (>20-50% degradation) | B (>20-50% degradation) | B (>20-50% degradation) |

More lines, now with the values ahead:

| OCI-LY10 % IRAK4 Degradation (0.01 uM) | OCI-LY10 % IRAK4 Degradation (0.1 uM) | OCI-LY10 % IRAK4 Degradation (1 uM) | SMILES |
| --- | --- | --- | --- |
| C (<20% degradation) | A (>50% degradation) | A (>50% degradation) | O=C1CCC(N2C(=O)c3cccc(NCc4cn(CCOCCOCCNCc5ccc(-n6cc(NC(=O)c7coc(-c8ccnc(NCC9CC9)c8)n7)c(C(F)F)n6)cc5)nn4)c3C2=O)C(=O)N1 (stereo not drawn) [I-340] |
| C (<20% degradation) | A (>50% degradation) | A (>50% degradation) | O=C1CCC(N2C(=O)c3ccc(NCc4cn(CCOCCOCCNCc5ccc(-n6cc(NC(=O)c7coc(-c8ccnc(NCC9CC9)c8)n7)c(C(F)F)n6)cc5)nn4)cc3C2=O)C(=O)N1 (stereo not drawn) [I-341] |
| C (<20% degradation) | B (>20-50% degradation) | A (>50% degradation) | O=C1CCC(N2C(=O)c3cccc(NCCc4cnnn4CCOCCOCCNCc4ccc(-n5cc(NC(=O)c6coc(-c7ccnc(NCC8CC8)c7)n6)c(C(F)F)n5)cc4)c3C2=O)C(=O)N1 (stereo not drawn) [I-342] |
| C (<20% degradation) | B (>20-50% degradation) | A (>50% degradation) | O=C1CCC(N2C(=O)c3ccc(NCCc4cnnn4CCOCCOCCNCc4ccc(-n5cc(NC(=O)c6coc(-c7ccnc(NCC8CC8)c7)n6)c(C(F)F)n5)cc4)cc3C2=O)C(=O)N1 (stereo not drawn) [I-343] |
| C (<20% degradation) | A (>50% degradation) | A (>50% degradation) | O=C1CCC(N2C(=O)c3ccc(OCc4cn(CCOCCOCCNCc5ccc(-n6cc(NC(=O)c7coc(-c8ccnc(NCC9CC9)c8)n7)c(C(F)F)n6)cc5)nn4)cc3C2=O)C(=O)N1 (stereo not drawn) [I-345] |
| B (>20-50% degradation) | A (>50% degradation) | A (>50% degradation) | O=C1CCC(N2C(=O)c3cccc(OCCc4cnnn4CCOCCOCCNCc4ccc(-n5cc(NC(=O)c6coc(-c7ccnc(NCC8CC8)c7)n6)c(C(F)F)n5)cc4)c3C2=O)C(=O)N1 (stereo not drawn) [I-346] |
| C (<20% degradation) | A (>50% degradation) | A (>50% degradation) | O=C1CCC(N2C(=O)c3ccc(OCCc4cnnn4CCOCCOCCNCc4ccc(-n5cc(NC(=O)c6coc(-c7ccnc(NCC8CC8)c7)n6)c(C(F)F)n5)cc4)cc3C2=O)C(=O)N1 (stereo not drawn) [I-347] |
| C (<20% degradation) | B (>20-50% degradation) | A (>50% degradation) | O=C1CCC(N2C(=O)c3ccc(NCCOCCN4CCN(CCOCCNCc5ccc(-n6cc(NC(=O)c7coc(-c8ccnc(NCC9CC9)c8)n7)c(C(F)F)n6)cc5)CC4)cc3C2=O)C(=O)N1 (stereo not drawn) [I-349] |
| C (<20% degradation) | A (>50% degradation) | A (>50% degradation) | O=C1CCC(N2C(=O)c3ccc(NCCOCCOCCNCc4ccc(-n5cc(NC(=O)c6coc(-c7ccnc(NCC8CC8)c7)n6)c(C(F)F)n5)cc4)cc3C2=O)C(=O)N1 (stereo not drawn) [I-354] |
| B (>20-50% degradation) | B (>20-50% degradation) | A (>50% degradation) | O=C1CCC(N2C(=O)c3cccc(CCCOCCNCc4ccc(-n5cc(NC(=O)c6coc(-c7ccnc(NCC8CC8)c7)n6)c(C(F)F)n5)cc4)c3C2=O)C(=O)N1 (stereo not drawn) [I-367] |
